# Laboratory results taken from patent US8153627B2, “Quinazoline linked pyrrolo[2,1-C][1, 4]benzodiazepine hybrids as potential anticancer agents and process for the preparation thereof” (Council of Scientific & Industrial Research, priority 2008, dated 2012).
# Tested on: CCRF-CEM
# Assay: Cytotoxicity SRB assay, CCRF-CEM
# Format: cell-based, human
# Details: Leukemia CCRF-CEM, 48 h exposure
# Description: (§1) 5a, 5c and 5d was evaluated for in vitro anticancer activity against sixty human tumor cells derived from nine cancer types leukemia, non-small-cell lung, colon, CNS, melanoma, ovarian, prostate, and breast cancer) as shown in (Table 1 and 2). For the compound, dose response curves for each cell line were measured at a minimum of five concentrations at 10 fold dilutions. A protocol of 48 h continuous drug exposure was used and a sulforhodamine B (SRB) protein assay was used to estimate cell viability or growth. The concentration causing 50% cell growth inhibition (GI50), total cell growth inhibition (TGI 0% growth) and 50% cell death (LC50, −50% growth) compared with the control was calculated.
row,Compound,GI50 [µM]
1,COc1cc2c(cc1OCCCCCCN1CCN(c3ncnc4ccccc34)CC1)N=C[C@@H]1CCCN1C2=O [Compound 5d],13.4

# Tested on: HL-60 (TB)
# Assay: Cytotoxicity SRB assay, HL-60 (TB)
# Format: cell-based, human
# Details: Leukemia HL-60 (TB), 48 h exposure
# Description: as §1
row,Compound,GI50 [µM]
1,COc1cc2c(cc1OCCCCCCN1CCN(c3ncnc4ccccc34)CC1)N=C[C@@H]1CCCN1C2=O [Compound 5d],19.5

# Tested on: RPMI-8226
# Assay: Cytotoxicity SRB assay, RPMI-8226
# Format: cell-based, human
# Details: Leukemia RPMI-8226, 48 h exposure
# Description: as §1
row,Compound,GI50 [µM]
1,COc1cc2c(cc1OCCCCCCN1CCN(c3ncnc4ccccc34)CC1)N=C[C@@H]1CCCN1C2=O [Compound 5d],16.8

# Tested on: NCI-H226
# Assay: Cytotoxicity SRB assay, NCI-H226
# Format: cell-based, human
# Details: Non-small cell lung NCI-H226, 48 h exposure
# Description: as §1
row,Compound,GI50 [µM]
1,COc1cc2c(cc1OCCCCCCN1CCN(c3ncnc4ccccc34)CC1)N=C[C@@H]1CCCN1C2=O [Compound 5d],18.4

# Tested on: NCI-H23
# Assay: Cytotoxicity SRB assay, NCI-H23
# Format: cell-based, human
# Details: Non-small cell lung NCI-H23, 48 h exposure
# Description: as §1
row,Compound,GI50 [µM]
1,COc1cc2c(cc1OCCCCCCN1CCN(c3ncnc4ccccc34)CC1)N=C[C@@H]1CCCN1C2=O [Compound 5d],22.5

# Tested on: NCI-H522
# Assay: Cytotoxicity SRB assay, NCI-H522
# Format: cell-based, human
# Details: Non-small cell lung NCI-H522, 48 h exposure
# Description: as §1
row,Compound,GI50 [µM]
1,COc1cc2c(cc1OCCCCCCN1CCN(c3ncnc4ccccc34)CC1)N=C[C@@H]1CCCN1C2=O [Compound 5d],18.3

# Tested on: HCT-116
# Assay: Cytotoxicity SRB assay, HCT-116
# Format: cell-based, human
# Details: Colon HCT-116, 48 h exposure
# Description: as §1
row,Compound,GI50 [µM]
1,COc1cc2c(cc1OCCCCCCN1CCN(c3ncnc4ccccc34)CC1)N=C[C@@H]1CCCN1C2=O [Compound 5d],14.6

# Tested on: HCT-15
# Assay: Cytotoxicity SRB assay, HCT-15
# Format: cell-based, human
# Details: Colon HCT-15, 48 h exposure
# Description: as §1
row,Compound,GI50 [µM]
1,COc1cc2c(cc1OCCCCCCN1CCN(c3ncnc4ccccc34)CC1)N=C[C@@H]1CCCN1C2=O [Compound 5d],18.4

# Tested on: SW-620
# Assay: Cytotoxicity SRB assay, SW-620
# Format: cell-based, human
# Details: Colon SW-620, 48 h exposure
# Description: as §1
row,Compound,GI50 [µM]
1,COc1cc2c(cc1OCCCCCCN1CCN(c3ncnc4ccccc34)CC1)N=C[C@@H]1CCCN1C2=O [Compound 5d],25.9

# Tested on: SF-539
# Assay: Cytotoxicity SRB assay, SF-539
# Format: cell-based, human
# Details: CNS SF-539, 48 h exposure
# Description: as §1
row,Compound,GI50 [µM]
1,COc1cc2c(cc1OCCCCCCN1CCN(c3ncnc4ccccc34)CC1)N=C[C@@H]1CCCN1C2=O [Compound 5d],33.7

# Tested on: U251
# Assay: Cytotoxicity SRB assay, U251
# Format: cell-based, human
# Details: CNS U251, 48 h exposure
# Description: as §1
row,Compound,GI50 [µM]
1,COc1cc2c(cc1OCCCCCCN1CCN(c3ncnc4ccccc34)CC1)N=C[C@@H]1CCCN1C2=O [Compound 5d],19.8

# Tested on: LOX IMVI
# Assay: Cytotoxicity SRB assay, LOX IMVI
# Format: cell-based, human
# Details: Melanoma LOX IMVI, 48 h exposure
# Description: as §1
row,Compound,GI50 [µM]
1,COc1cc2c(cc1OCCCCCCN1CCN(c3ncnc4ccccc34)CC1)N=C[C@@H]1CCCN1C2=O [Compound 5d],15

# Tested on: MALME-3M
# Assay: Cytotoxicity SRB assay, MALME-3M
# Format: cell-based, human
# Details: Melanoma MALME-3M, 48 h exposure
# Description: as §1
row,Compound,GI50 [µM]
1,COc1cc2c(cc1OCCCCCCN1CCN(c3ncnc4ccccc34)CC1)N=C[C@@H]1CCCN1C2=O [Compound 5d],36.2

# Tested on: M14
# Assay: Cytotoxicity SRB assay, M14
# Format: cell-based, human
# Details: Melanoma M14, 48 h exposure
# Description: as §1
row,Compound,GI50 [µM]
1,COc1cc2c(cc1OCCCCCCN1CCN(c3ncnc4ccccc34)CC1)N=C[C@@H]1CCCN1C2=O [Compound 5d],18.8

# Tested on: SK-MEL-5
# Assay: Cytotoxicity SRB assay, SK-MEL-5
# Format: cell-based, human
# Details: Melanoma SK-MEL-5, 48 h exposure
# Description: as §1
row,Compound,GI50 [µM]
1,COc1cc2c(cc1OCCCCCCN1CCN(c3ncnc4ccccc34)CC1)N=C[C@@H]1CCCN1C2=O [Compound 5d],23.3

# Tested on: UACC-257
# Assay: Cytotoxicity SRB assay, UACC-257
# Format: cell-based, human
# Details: Melanoma UACC-257, 48 h exposure
# Description: as §1
row,Compound,GI50 [µM]
1,COc1cc2c(cc1OCCCCCCN1CCN(c3ncnc4ccccc34)CC1)N=C[C@@H]1CCCN1C2=O [Compound 5d],15.9

# Tested on: UACC-62
# Assay: Cytotoxicity SRB assay, UACC-62
# Format: cell-based, human
# Details: Melanoma UACC-62, 48 h exposure
# Description: as §1
row,Compound,GI50 [µM]
1,COc1cc2c(cc1OCCCCCCN1CCN(c3ncnc4ccccc34)CC1)N=C[C@@H]1CCCN1C2=O [Compound 5d],22.5

# Tested on: OVCAR-3
# Assay: Cytotoxicity SRB assay, OVCAR-3
# Format: cell-based, human
# Details: Ovarian OVCAR-3, 48 h exposure
# Description: as §1
row,Compound,GI50 [µM]
1,COc1cc2c(cc1OCCCCCCN1CCN(c3ncnc4ccccc34)CC1)N=C[C@@H]1CCCN1C2=O [Compound 5d],26.3

# Tested on: 786-0
# Assay: Cytotoxicity SRB assay, 786-0
# Format: cell-based, human
# Details: Renal 786-0, 48 h exposure
# Description: as §1
row,Compound,GI50 [µM]
1,COc1cc2c(cc1OCCCCCCN1CCN(c3ncnc4ccccc34)CC1)N=C[C@@H]1CCCN1C2=O [Compound 5d],14.9

# Tested on: A498
# Assay: Cytotoxicity SRB assay, A498
# Format: cell-based, human
# Details: Renal A498, 48 h exposure
# Description: as §1
row,Compound,GI50 [µM]
1,COc1cc2c(cc1OCCCCCCN1CCN(c3ncnc4ccccc34)CC1)N=C[C@@H]1CCCN1C2=O [Compound 5d],22

# Tested on: ACHN
# Assay: Cytotoxicity SRB assay, ACHN
# Format: cell-based, human
# Details: Renal ACHN, 48 h exposure
# Description: as §1
row,Compound,GI50 [µM]
1,COc1cc2c(cc1OCCCCCCN1CCN(c3ncnc4ccccc34)CC1)N=C[C@@H]1CCCN1C2=O [Compound 5d],46.1

# Tested on: CAKI-1
# Assay: Cytotoxicity SRB assay, CAKI-1
# Format: cell-based, human
# Details: Renal CAKI-1, 48 h exposure
# Description: as §1
row,Compound,GI50 [µM]
1,COc1cc2c(cc1OCCCCCCN1CCN(c3ncnc4ccccc34)CC1)N=C[C@@H]1CCCN1C2=O [Compound 5d],12.9

# Tested on: TK-10
# Assay: Cytotoxicity SRB assay, TK-10
# Format: cell-based, human
# Details: Renal TK-10, 48 h exposure
# Description: as §1
row,Compound,GI50 [µM]
1,COc1cc2c(cc1OCCCCCCN1CCN(c3ncnc4ccccc34)CC1)N=C[C@@H]1CCCN1C2=O [Compound 5d],31.4

# Tested on: UO-31
# Assay: Cytotoxicity SRB assay, UO-31
# Format: cell-based, human
# Details: Renal UO-31, 48 h exposure
# Description: as §1
row,Compound,GI50 [µM]
1,COc1cc2c(cc1OCCCCCCN1CCN(c3ncnc4ccccc34)CC1)N=C[C@@H]1CCCN1C2=O [Compound 5d],15.2

# Tested on: NCI/ADR-RES
# Assay: Cytotoxicity SRB assay, NCI/ADR-RES
# Format: cell-based, human
# Details: Breast NCI/ADR-RES, 48 h exposure
# Description: as §1
row,Compound,GI50 [µM]
1,COc1cc2c(cc1OCCCCCCN1CCN(c3ncnc4ccccc34)CC1)N=C[C@@H]1CCCN1C2=O [Compound 5d],18.7

# Tested on: MDA-MB-231/ATCC
# Assay: Cytotoxicity SRB assay, MDA-MB-231/ATCC
# Format: cell-based, human
# Details: Breast MDA-MB-231/ATCC, 48 h exposure
# Description: as §1
row,Compound,GI50 [µM]
1,COc1cc2c(cc1OCCCCCCN1CCN(c3ncnc4ccccc34)CC1)N=C[C@@H]1CCCN1C2=O [Compound 5d],14.2

# Tested on: sixty human tumor cells derived from nine cancer types
# Assay: NCI sixty human tumor cell line screen (SRB), all lines / mean graph midpoints
# Format: cell-based
# Details: 50% cell death; human tumor cell lines; 48 h exposure, SRB
# Description: as §1
# The mean graph mid points of log10 TGI and log10 LC50 have shown similar pattern to the log10 GI50 mean graph mid points.
row,Compound,Log10 LC50 mean graph midpoint (MG_MID)
1,COc1cc2c(cc1OCCCCCCN1CCN(c3ncnc4ccccc34)CC1)N=C[C@@H]1CCCN1C2=O [Compound 5d],−4.96

# Same assay, conditions: human tumor cell lines; 48 h exposure, SRB
row,Compound,Log10 GI50 mean graph midpoint (MG_MID)
1,COc1cc2c(cc1OCCCCCCN1CCN(c3ncnc4ccccc34)CC1)N=C[C@@H]1CCCN1C2=O [Compound 5d],−6.49

# Same assay, conditions: total cell growth inhibition; human tumor cell lines; 48 h exposure, SRB
row,Compound,Log10 TGI mean graph midpoint (MG_MID)
1,COc1cc2c(cc1OCCCCCCN1CCN(c3ncnc4ccccc34)CC1)N=C[C@@H]1CCCN1C2=O [Compound 5d],−5.85

# Tested on: duplex-form calf thymus DNA (CT-DNA)
# Assay: Thermal denaturation studies with calf thymus DNA
# Format: binding
# Details: 0 hr, 18 hr and 36 hr at 37° C.
# Description: Compounds were subjected to thermal denaturation studies with duplex-form calf thymus DNA (CT-DNA) using an adaptation of a reported procedure. Working solutions in aqueous buffer (10 mM NaH2PO4/Na2HPO4, 1 mM Na2EDTA, pH 7.00+0.01) containing CT-DNA (100 μm in phosphate) and the PBD (20 μm) were prepared by addition of concentrated PBD solutions in DMSO to obtain a fixed [PBD]/[DNA] molar ratio of 1:5. The DNA-PBD solutions were incubated at 37° C. for 0, 18, and 36 h prior to analysis. Samples were monitored at 260 nm using a Beckman DU-7400 spectrophotometer fitted with high performance temperature controller, and heating was applied at 1° C. min^−1 in the 40-90° C. range. DNA helix coil transition temperatures (Tm) were obtained from the maxima in the (dA260)/dT derivative plots. Results are given as the mean±standard deviation from three determinations and are corrected for the effects of DMSO co-solvent using a linear correction term. Drug-induced alterations in DNA melting behaviour are given by: ΔTm=Tm(DNA+PBD)−Tm (DNA alone), where the Tm value for the PBD-free CT-DNA is 69.0±0.01.
# The DNA binding activity for these novel C8-linked quinazoline-PBD hybrids has been examined by thermal denaturation studies using calf thymus (CT) DNA. […] Data for 5a-d and DC-81 are included in Table 4 for comparison.
row,Compound,Change of DNA melting (ΔTm) over incubation time
1,COc1cc2c(cc1OCCCCCCN1CCN(c3ncnc4ccccc34)CC1)N=C[C@@H]1CCCN1C2=O [Compound 5d],gradually increased

# Same assay, conditions: [PBD]:[DNA] molar ratio 1:5; CT-DNA 100 μM, ligand 20 μM; pH 7.00; 0 h
row,Compound,ΔTμ (° C.) after incubation at 37° C. for 0 h [°C]
1,COc1cc2c(cc1OCCCCN1CCN(c3ncnc4ccccc34)CC1)N=C[C@@H]1CCCN1C2=O [Compound 5b],9.7
2,COc1cc2c(cc1OCCCCCCN1CCN(c3ncnc4ccccc34)CC1)N=C[C@@H]1CCCN1C2=O [Compound 5d],10.6
3,"COc1cc2c(cc1O)N=CC1CCCN1C2=O (stereo not drawn) [DC-81, reference compound]",0.3

# Same assay, conditions: [PBD]:[DNA] molar ratio 1:5; CT-DNA 100 μM, ligand 20 μM; pH 7.00; 18 h
row,Compound,ΔTμ (° C.) after incubation at 37° C. for 18 h [°C]
1,COc1cc2c(cc1OCCCCN1CCN(c3ncnc4ccccc34)CC1)N=C[C@@H]1CCCN1C2=O [Compound 5b],10.9
2,COc1cc2c(cc1OCCCCCCN1CCN(c3ncnc4ccccc34)CC1)N=C[C@@H]1CCCN1C2=O [Compound 5d],12.2
3,"COc1cc2c(cc1O)N=CC1CCCN1C2=O (stereo not drawn) [DC-81, reference compound]",0.7
